{"source": "paper PMC8472287", "about": "“Betulinic Acid Decorated with Polar Groups and Blue Emitting BODIPY Dye: Synthesis, Cytotoxicity, Cell-Cycle Analysis and Anti-HIV Profiling” (Biomedicines, 2021)", "key": {"CCRF-CEM": {"test_system": "CCRF-CEM", "assay": "MTS cytotoxicity assay, CCRF-CEM", "format": "cell-based", "settings": "Homo sapiens, 72 h, 3-day incubation", "how_it_was_run": "(§1)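 72 h continuous compound exposure, 37 °C/5% CO2; seeding 25,000–35,000 cells/mL; MTS 1–4 h, OD 490 nm; TCS = OD treated/mean OD control × 100%; technical duplicates, ≥3 biological replicates.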"}, "CEM-DNR": {"test_system": "CEM-DNR", "assay": "MTS cytotoxicity assay, CEM-DNR", "format": "cell-based", "settings": "Homo sapiens, 72 h, CEM-DNR (daunorubicin resistant), 3-day incubation", "how_it_was_run": "as §1"}, "K562": {"test_system": "K562", "assay": "MTS cytotoxicity assay, K562", "format": "cell-based", "settings": "Homo sapiens, 72 h, 3-day incubation", "how_it_was_run": "as §1"}, "K562-Tax": {"test_system": "K562-Tax", "assay": "MTS cytotoxicity assay, K562-Tax", "format": "cell-based", "settings": "Homo sapiens, 72 h, K562-Tax (paclitaxel-resistant), 3-day incubation", "how_it_was_run": "as §1"}, "A549": {"test_system": "A549", "assay": "MTS cytotoxicity assay, A549", "format": "cell-based", "settings": "Homo sapiens, 72 h, 3-day incubation", "how_it_was_run": "as §1"}, "HCT116": {"test_system": "HCT116", "assay": "MTS cytotoxicity assay, HCT116", "format": "cell-based", "settings": "Homo sapiens, HCT-116, 72 h, 3-day incubation", "how_it_was_run": "as §1"}, "HCT116p53−/−": {"test_system": "HCT116p53−/−", "assay": "MTS cytotoxicity assay, HCT116p53−/−", "format": "cell-based", "settings": "Homo sapiens, HCT116-p53-null, 72 h, HCT116p53−/− (null p53 gene), 3-day incubation", "how_it_was_run": "as §1"}, "U2OS": {"test_system": "U2OS", "assay": "MTS cytotoxicity assay, U2OS", "format": "cell-based", "settings": "Homo sapiens, 72 h, 3-day incubation", "how_it_was_run": "as §1"}, "MRC-5": {"test_system": "MRC-5", "assay": "MTS cytotoxicity assay, MRC-5", "format": "cell-based", "settings": "Homo sapiens, MRC5, 72 h, MRC-5 normal fibroblasts, 3-day incubation", "how_it_was_run": "as §1"}, "BJ": {"test_system": "BJ", "assay": "MTS cytotoxicity assay, BJ", "format": "cell-based", "settings": "Homo sapiens, 72 h, BJ normal fibroblasts, 3-day incubation", "how_it_was_run": "as §1"}, "entire cell line panel [1]": {"test_system": "entire cell line panel", "assay": "MTS cytotoxicity assay, whole panel (summary in words)", "settings": "maximal tested concentration"}, "CCRF-CEM lymphoblasts [2]": {"test_system": "CCRF-CEM lymphoblasts", "assay": "Mitotic marker pH3Ser10 flow cytometry", "format": "cell-based, human", "settings": "5 × IC50", "procedure": "(§2) CCRF-CEM cells were seeded in 6-well plates at a density of 1 × 10^6/well. […] Cells were then harvested, washed with cold 1 × PBS and fixed in ice-cold 70% ethanol. Fixed cells were incubated overnight at −20 °C, washed in hypotonic citrate buffer, treated with RNase (50 μg mL^−1) and incubated with propidium iodide for 15 min. DNA content was analysed using Becton Dickinson flow cytometer and cell cycle data were analysed in the program ModFitLT (Verity, Carrollton, TX, USA). Apoptosis was measured in a logarithmic model expressing the percentage of the particles with propidium content lower than cells in G0/G1 phase (<G1) of the cell cycle. The mitotic marker pH3Ser10 antibody (Sigma) and secondary anti-mouse-FITC antibody (Sigma) were used for labelling and subsequent flow cytometry analysis of ethanol-fixed CCRF-CEM cells."}, "CCRF-CEM lymphoblasts [3]": {"test_system": "CCRF-CEM lymphoblasts", "assay": "BrDU incorporation analysis (DNA synthesis)", "format": "cell-based, human", "settings": "24 h incubation", "procedure": "Cells were cultivated as in the method above and pulse-labelled with 10 μM 5-bromo-2-deoxyuridine (BrDU) for 30 min before collection to the test tubes. The cells were washed with cold 1 × PBS and fixed in ice-cold 70% ethanol. Before analysis, they were washed with 1 × PBS and incubated in 2M HCl for 30 min at room temperature. Following neutralization with 0.1M Na2B4O7 (borax), the cells were washed with 0.5% Tween-20 and 1% BSA in 1 × PBS. The cell pellets were stained using a primary anti-BrdU antibody (Exbio, Vestec, Czech Republic) for 30 min at room temperature and a secondary anti-mouse-FITC antibody (Sigma). The samples were then incubated with propidium iodide (0.1 mg mL^−1), treated with RNase A (0.5 mg mL^−1) for 1 h at room temperature in the dark and analysed as above."}, "CCRF-CEM lymphoblasts [4]": {"test_system": "CCRF-CEM lymphoblasts", "assay": "BrU incorporation analysis (RNA synthesis)", "format": "cell-based, human", "settings": "24 h, 5 × IC50 (high concentration)"}, "entire cell line panel [5]": {"test_system": "entire cell line panel"}, "HEK 293 cells": {"test_system": "HEK 293 cells", "settings": "Resazurin assay"}, "CCRF-CEM lymphoblasts [6]": {"test_system": "CCRF-CEM lymphoblasts", "assay": "Cell cycle and apoptosis analysis (flow cytometry, propidium iodide)", "format": "cell-based, human", "settings": "5 × IC50", "procedure": "as §2"}}, "note": "Counter-ions that a name gives are not always drawn. Like-named read-outs stand apart in the source and are kept apart here."}
{"smiles": "C=C(C)[C@@H]1CC[C@]2(C(=O)O)CC[C@]3(C)[C@H](CC[C@@H]4[C@@]5(C)CC[C@H](O)C(C)(C)[C@@H]5CC[C@]43C)[C@@H]12", "note": "[BA, Betulinic acid]", "values": [{"measurement": "IC50", "setting": "CCRF-CEM", "result": "> 50000", "unit": "nM"}, {"measurement": "IC50", "setting": "CEM-DNR", "result": 23000, "unit": "nM"}, {"measurement": "IC50", "setting": "K562", "result": "> 50000", "unit": "nM"}, {"measurement": "IC50", "setting": "K562-Tax", "result": "> 50000", "unit": "nM"}, {"measurement": "IC50", "setting": "A549", "result": 22700, "unit": "nM"}, {"measurement": "IC50", "setting": "HCT116", "result": "> 50000", "unit": "nM"}, {"measurement": "IC50", "setting": "HCT116p53−/−", "result": "> 50000", "unit": "nM"}, {"measurement": "IC50", "setting": "U2OS", "result": 29700, "unit": "nM"}, {"measurement": "IC50", "setting": "MRC-5", "result": "> 50000", "unit": "nM"}, {"measurement": "IC50", "setting": "BJ", "result": "> 50000", "unit": "nM"}, {"measurement": "cytotoxic effect in the cell line panel (in words)", "setting": "entire cell line panel [1]", "result": "weak or medium cytotoxic effect"}]}
{"smiles": "C=C(C)[C@@H]1CC[C@]2(C(=O)NCCCN)CC[C@]3(C)[C@H](CC[C@@H]4[C@@]5(C)CC[C@H](O)C(C)(C)[C@@H]5CC[C@]43C)[C@@H]12", "note": "[Compound 3, (3β)-N-(3-Aminopropyl)-3-hydroxylup-20(29)-ene-28-amide]", "values": [{"measurement": "IC50", "setting": "CCRF-CEM", "result": 210, "unit": "nM"}, {"measurement": "IC50", "setting": "CEM-DNR", "result": 1220, "unit": "nM"}, {"measurement": "IC50", "setting": "K562", "result": 900, "unit": "nM"}, {"measurement": "IC50", "setting": "K562-Tax", "result": 370, "unit": "nM"}, {"measurement": "IC50", "setting": "A549", "result": 1800, "unit": "nM"}, {"measurement": "IC50", "setting": "HCT116", "result": 820, "unit": "nM"}, {"measurement": "IC50", "setting": "HCT116p53−/−", "result": 440, "unit": "nM"}, {"measurement": "IC50", "setting": "U2OS", "result": 890, "unit": "nM"}, {"measurement": "IC50", "setting": "MRC-5", "result": 2590, "unit": "nM"}, {"measurement": "IC50", "setting": "BJ", "result": 1910, "unit": "nM"}, {"measurement": "rate of cell division by mitotic marker pH3Ser10 (in words)", "setting": "CCRF-CEM lymphoblasts [2]", "result": "low rate of cell division"}, {"measurement": "fraction of proliferating BrDU positive CCRF-CEM cells (in words)", "setting": "CCRF-CEM lymphoblasts [3]", "result": "reduced the fraction of proliferating BrDU positive CCRF-CEM cells"}, {"measurement": "RNA synthesis by BrU (in words)", "setting": "CCRF-CEM lymphoblasts [4]", "result": "stalled RNA synthesis"}, {"measurement": "cytotoxic effect in the cell line panel (in words)", "setting": "entire cell line panel [5]", "result": "high cytotoxicity"}, {"measurement": "concentration at which highly toxic to HEK 293 cells", "setting": "HEK 293 cells", "result": "lower than 5 µM"}]}
{"smiles": "C=C(C)[C@@H]1CC[C@]2(C(=O)N3CCN(CCN)CC3)CC[C@]3(C)[C@H](CC[C@@H]4[C@@]5(C)CC[C@H](O)C(C)(C)[C@@H]5CC[C@]43C)[C@@H]12", "note": "[Compound 14, (3β)-28-[4-(2-Aminoethyl)piperazine-1-yl]-3-hydroxylup-20(29)-ene-28-one hydrochloride]", "values": [{"measurement": "IC50", "setting": "CCRF-CEM", "result": 290, "unit": "nM"}, {"measurement": "IC50", "setting": "CEM-DNR", "result": 350, "unit": "nM"}, {"measurement": "IC50", "setting": "K562", "result": 400, "unit": "nM"}, {"measurement": "IC50", "setting": "K562-Tax", "result": 520, "unit": "nM"}, {"measurement": "IC50", "setting": "A549", "result": 1260, "unit": "nM"}, {"measurement": "IC50", "setting": "HCT116", "result": 390, "unit": "nM"}, {"measurement": "IC50", "setting": "HCT116p53−/−", "result": 440, "unit": "nM"}, {"measurement": "IC50", "setting": "U2OS", "result": 420, "unit": "nM"}, {"measurement": "IC50", "setting": "MRC-5", "result": 1580, "unit": "nM"}, {"measurement": "IC50", "setting": "BJ", "result": 1590, "unit": "nM"}, {"measurement": "increase of the percentage of cells in the S-phase compared to untreated control", "setting": "CCRF-CEM lymphoblasts [6]", "result": "about 50%"}, {"measurement": "rate of cell division by mitotic marker pH3Ser10 (in words)", "setting": "CCRF-CEM lymphoblasts [2]", "result": "low rate of cell division"}, {"measurement": "fraction of proliferating BrDU positive CCRF-CEM cells (in words)", "setting": "CCRF-CEM lymphoblasts [3]", "result": "reduced the fraction of proliferating BrDU positive CCRF-CEM cells"}, {"measurement": "RNA synthesis by BrU (in words)", "setting": "CCRF-CEM lymphoblasts [4]", "result": "stalled RNA synthesis"}, {"measurement": "cytotoxic effect in the cell line panel (in words)", "setting": "entire cell line panel [5]", "result": "high cytotoxicity"}, {"measurement": "concentration at which highly toxic to HEK 293 cells", "setting": "HEK 293 cells", "result": "lower than 5 µM"}]}
